SMILES strings stand for the structures.

In general, IC50 refers to the concentration that gives 50% inhibition. Lower therefore signals greater potency in that assay.

Chain of human IDO1 protease (P14902 whole entry): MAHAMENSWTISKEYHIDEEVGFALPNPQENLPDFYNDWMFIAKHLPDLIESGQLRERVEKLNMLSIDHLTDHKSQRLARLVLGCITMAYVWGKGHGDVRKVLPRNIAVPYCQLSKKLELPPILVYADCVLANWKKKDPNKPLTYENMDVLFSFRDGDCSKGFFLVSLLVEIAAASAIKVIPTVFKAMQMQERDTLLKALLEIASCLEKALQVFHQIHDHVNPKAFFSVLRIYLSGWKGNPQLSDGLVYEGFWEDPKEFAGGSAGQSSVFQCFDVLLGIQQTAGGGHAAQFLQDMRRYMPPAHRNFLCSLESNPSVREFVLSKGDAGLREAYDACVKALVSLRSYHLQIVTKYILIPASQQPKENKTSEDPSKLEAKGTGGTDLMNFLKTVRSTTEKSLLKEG

For the assay, the target named is human IDO1 protease (Homo sapiens (Human), UniProt P14902). Description: Inhibitory activity against human IDO1 protease (absorbance test method). To be noted: IDO1 (His-tag) enzyme, absorbance at 320 nm. It is filed as biochemical. As to the method:
1) Experimental Materials and Apparatus: • IDO1 (His-tag) enzyme (BPS Bioscience) • L-tryptophan (Sigma) • Methylene blue (Sigma) • Catalase originated from the liver of cattle (Sigma) • L-ascorbic acid (Sigma) • Glycerol (Sigma) • Potassium dihydrogen phosphate solution (Sigma) • Tween 20 (Sigma) • Automatic sampling platform Liquid handler (Bravo & Echo) • Microplate Reader SpectraMax M5e (Molecular Devices)
2) Test Method of Compounds: The Compounds are Determined by Absorbance Test Method:
The tested compounds and the reference compounds are dissolved in DMSO to prepare a high concentration of storage solution. The stock solution of reference compound was diluted with DMSO to prepare a 100× solution. In the first column of the working plate, 8 μL above tested compounds and 8 μL 100× reference compound were respectively added as the highest concentration, and then the highest concentrations were subjected to three times dilution to obtain 11 concentrations and prepare 100× solution. 0.5 μL solution was transferred from the above plate to the detection plate. […]. For HPE and ZPE control wells, 0.5 μL 100% DMSO was added.
25 μL 2×IDO1 (His-tag) enzyme solution (containing L-ascorbic acid, methylene blue, and catalase) was added to each well. 25 μL reaction solution without IDO1 (His-tag) enzyme was added into HPE control well. The test plate was centrifugated at 1000 rpm for 1 minute to mix well. Then, the test plate was incubated at room temperature for 30 minutes. 25 μL above 2× substrate (L-tryptophan) solution was added to each well. The test plate was centrifugated at 1000 rpm for 1 minute to mix well. The detection plate was placed on ELISA (SpectraMax M5e), the temperature was set at 25° C., and the absorbance (OD value) was measured at 320 nm every 10 minutes till 60 minutes.
Calculating the increase ratio of absorbance: the slope of the absorbance increase curve from 10 min to 60 min is derived from SpectralMax M5e. The inhibition coefficient of compound was calculated: the inhibition ratio of compound=(the absorbance increase ratio of ZPE control well−the absorbance increase ratio of compound well)/(the absorbance increase ratio of ZPE control well−the absorbance increase ratio of HPE control well)×100. Results was analyzed by Prism 5.0.
Molecule `O/N=C(\Nc1ccc(F)c(Br)c1)c1nonc1NCC1CCNC1` (stereo not drawn) [Compound 6, N-(3-Bromo-4-fluorophenyl)-N′-hydroxyl-4-((azacyclopentan-3-ylmethyl)amino)-1,2,5-oxadiazole-3-formamidine] showed an IC50 of 88 nM.

On to `CN(C)S(=O)(=O)N1CC(CNc2nonc2C(=NO)Nc2ccc(F)c(Br)c2)C1` [Compound 81], for which the midpoint of inhibition, the IC50, lay at 142 nM. The figure for `CN(C)S(=O)(=O)N1CCC(CNc2nonc2/C(=N/O)Nc2ccc(F)c(Br)c2)C1` (stereo not drawn) [Compound 23, (Z)—N-(3-bromo-4-fluorophenyl)-4-(((1-(N,N-methylsulfonyl)pyrrolidinyl-3-yl)methyl)amino)-N′-hydroxyl-1,2,5-oxadiazol-3-carboxyoximide] is 183 nM. With `NS(=O)(=O)N1CCC(COc2nonc2/C(=N/O)Nc2ccc(F)c(Br)c2)C1` (stereo not drawn) [Compound 27, (Z)—N-(3-Bromo-4-fluorophenyl)-N′-hydroxyl-4-((1-sulfamoylpyrrolidin-3-yl)methoxyl)-1,2,5-oxadiazol-3-formamidine] the figure was 628 nM. The figure for `NS(=O)(=O)N1CCC(CNc2nonc2/C(=N/O)Nc2ccc(F)c(Br)c2)C1` (stereo not drawn) [Compound 7, N-(3-bromo-4-fluorophenyl)-N′-hydroxyl-4-(((1-sulfamoylpyrrolidin-3-yl)methyl)amino)-1,2,5-oxadiazole-3-formamidine] is 59 nM. The molecule `NS(=O)(=O)N1CCOC(CNc2nonc2/C(=N/O)Nc2ccc(F)c(Br)c2)C1` (stereo not drawn) [Compound 11, N-(3-bromo-4-fluorophenyl)-N′-hydroxyl-4-(((4-sulfamoylmorpholin-2-yl)methyl)amino)-1,2,5-oxadiazole-3-formamidine] gave a 50% inhibitory concentration (IC50) of 206 nM.

`CC(C)(C)OC(=O)N1CC(CNc2nonc2/C(=N/O)Nc2ccc(F)c(Br)c2)C1` [Compound 3, t-Butyl 3-(((4-(N-(3-bromo-4-fluorophenyl)-N′-hydroxylformamidinyl)-1,2,5-oxadiazole-3-yl)amino)methyl)azetidin-1-formate]: the half-inhibitory concentration (IC50) was 430 nM. The figure for `NS(=O)(=O)N1CCCC1CNc1nonc1/C(=N/O)Nc1ccc(F)c(Br)c1` (stereo not drawn) [Compound 13, N-(3-Bromo-4-fluorophenyl)-N′-hydroxyl-4-(((1-sulfamoylazacyclopentan-2-yl)methyl)amino)-1,2,5-oxadiazole-3-formamidine] is 214 nM; for `NS(=O)(=O)N1CCC(CNc2nonc2/C(=N/O)Nc2ccc(F)c(Br)c2)CC1` [Compound 18, N-(3-bromo-4-fluorophenyl)-N′-hydroxyl-4-(((1-sulfamoylazacyclohexane-4-yl)methyl)amino)-1,2,5-oxadiazole-3-formamidine] it is 114 nM. The figure for `NS(=O)(=O)N1CCCCC1CNc1nonc1/C(=N/O)Nc1ccc(F)c(Br)c1` (stereo not drawn) [Compound 14, N-(3-bromo-4-fluorophenyl)-N′-hydroxyl-4-(((1-sulfamoylazacyclohexane-2-yl)methyl)amino)-1,2,5-oxadiazole-3-formamidine] is 279 nM; for `NS(=O)(=O)N1CC(O)(CNc2nonc2C(=NO)Nc2ccc(F)c(Br)c2)C1` [Compound 92] it is 64 nM. With `NS(=O)(=O)N1CCCC(CNc2nonc2/C(=N/O)Nc2ccc(F)c(Br)c2)C1` (stereo not drawn) [Compound 10, N-(3-bromo-4-fluorophenyl)-N′-hydroxyl-4-(((1-sulfamoylpiperidin-3-yl)methyl)amino)-1,2,5-oxadiazole-3-formamidine] the figure was 254 nM; with `CC(C)(C)OC(=O)N1CCC(CNc2nonc2/C(=N/O)Nc2ccc(F)c(Br)c2)C1` (stereo not drawn) [Compound 5], 276 nM. As to `NS(=O)(=O)N1CCC1CNc1nonc1/C(=N/O)Nc1ccc(F)c(Br)c1` (stereo not drawn) [Compound 12, N-(3-Bromo-4-fluorophenyl)-N′-hydroxyl-4-(((1-sulfamoylazetidine-2-yl)methyl)amino)-1,2,5-oxadiazole-3-formamidine], half-maximal inhibition (IC50) was put at 133 nM. With `CN(C)C(=O)C(=O)N1CC(CNc2nonc2C(=NO)Nc2ccc(F)c(Br)c2)C1` [Compound 89] the figure was 183 nM.

For the origin of these results see patent US11447477B2, “Indoleamine-2,3-dioxygenase inhibitor, the preparative method and the use thereof” (HINOVA PHARMACEUTICALS INC., priority 2017, dated 2022).
